# Data as given in ChEMBL document CHEMBL3885881, “DrugMatrix”.
# Organism: Rattus norvegicus
# Assay: DrugMatrix - Regimen: Daily Repeat
# Assay type: toxicity, organism-based, Sprague-Dawley
# Set-up: regimen Daily Repeat, gender Male, age 6-8 weeks
# Settings: in vivo, po, route oral GAVAGE, vehicle .5 % CMC; for ABSOLUTE BASOPHIL / ABSOLUTE EOSINOPHIL / ABSOLUTE LYMPHOCYTE / ABSOLUTE MONOCYTE / ABSOLUTE SEGMENTED NEUTROPHIL / BASOPHIL / EOSINOPHIL / ERYTHROCYTE COUNT / HEMATOCRIT / HEMOGLOBIN / LEUKOCYTE COUNT / LYMPHOCYTE / MEAN CORPUSCULAR HEMOGLOBIN / MEAN CORPUSCULAR HEMOGLOBIN CONCENTRATION / MEAN CORPUSCULAR VOLUME / MONOCYTE / NEUTROPHIL / NUCLEATED RED BLOOD CELLS / PLATELET COUNT: tissue Blood; for ALANINE AMINOTRANSFERASE / ALBUMIN / ALKALINE PHOSPHATASE / ASPARTATE AMINOTRANSFERASE / BLOOD UREA NITROGEN / CARBON DIOXIDE / CHLORIDE / CHOLESTEROL / CREATINE PHOSPHOKINASE / CREATININE / GLUCOSE / LACTATE DEHYDROGENASE / LIPASE / PHOSPHORUS / POTASSIUM / SODIUM / TOTAL BILIRUBIN / TOTAL PROTEIN / URIC ACID: tissue Plasma
# [1] = 12 mg/kg, 72 h, dose level Low, time 3 day
# [2] = 12 mg/kg, 120 h, dose level Low, time 5 day
# [3] = 1200 mg/kg, 72 h, dose level High, time 3 day
# [4] = 1200 mg/kg, 120 h, dose level High, time 5 day
smiles,measurement,setting,value
CC(=O)OCC(COC(C)=O)OC(C)=O [TRIACETIN],ABSOLUTE BASOPHIL,[1],0 CELLS/uL
same,ABSOLUTE EOSINOPHIL,[1],0 CELLS/uL
same,ABSOLUTE LYMPHOCYTE,[1],13591 CELLS/uL
same,ABSOLUTE MONOCYTE,[1],0 CELLS/uL
same,ABSOLUTE SEGMENTED NEUTROPHIL,[1],1342.33 CELLS/uL
same,BASOPHIL,[1],0%
same,EOSINOPHIL,[1],0%
same,ERYTHROCYTE COUNT,[1],5.57 x10E6/uL
same,HEMATOCRIT,[1],35.43%
same,HEMOGLOBIN,[1],13.97 G/DL
same,LEUKOCYTE COUNT,[1],14.93 x10E3/uL
same,LYMPHOCYTE,[1],91.33%
same,MEAN CORPUSCULAR HEMOGLOBIN,[1],25.13 pg
same,MEAN CORPUSCULAR HEMOGLOBIN CONCENTRATION,[1],39.43 G/DL
same,MEAN CORPUSCULAR VOLUME,[1],63.77 fL
same,MONOCYTE,[1],0%
same,NEUTROPHIL,[1],8.67%
same,NUCLEATED RED BLOOD CELLS,[1],0 /100WBC
same,PLATELET COUNT,[1],1332 x10E3/uL
same,ALANINE AMINOTRANSFERASE,[1],52 u/L
same,ALBUMIN,[1],4.5 G/DL
same,ALKALINE PHOSPHATASE,[1],453.33 u/L
same,ASPARTATE AMINOTRANSFERASE,[1],96.33 u/L
same,BLOOD UREA NITROGEN,[1],14.33 mg/dL
same,CARBON DIOXIDE,[1],21.67 mmol/L
same,CHLORIDE,[1],105 MEQ/L
same,CHOLESTEROL,[1],71.67 mg/dL
same,CREATINE PHOSPHOKINASE,[1],251 u/L
same,CREATININE,[1],0.21 mg/dL
same,GLUCOSE,[1],185 mg/dL
same,LACTATE DEHYDROGENASE,[1],165.33 u/L
same,LIPASE,[1],9.33 u/L
same,PHOSPHORUS,[1],13.93 mg/dL
same,POTASSIUM,[1],6.64 MEQ/L
same,SODIUM,[1],149.57 MEQ/L
same,TOTAL BILIRUBIN,[1],0.17 mg/dL
same,TOTAL PROTEIN,[1],6.2 G/DL
same,URIC ACID,[1],2.07 mg/dL
same,ABSOLUTE BASOPHIL,[2],0 CELLS/uL
same,ABSOLUTE EOSINOPHIL,[2],0 CELLS/uL
same,ABSOLUTE LYMPHOCYTE,[2],15649 CELLS/uL
same,ABSOLUTE MONOCYTE,[2],168.33 CELLS/uL
same,ABSOLUTE SEGMENTED NEUTROPHIL,[2],1016 CELLS/uL
same,BASOPHIL,[2],0%
same,EOSINOPHIL,[2],0%
same,ERYTHROCYTE COUNT,[2],5.29 x10E6/uL
same,HEMATOCRIT,[2],33.97%
same,HEMOGLOBIN,[2],13.27 G/DL
same,LEUKOCYTE COUNT,[2],16.83 x10E3/uL
same,LYMPHOCYTE,[2],93%
same,MEAN CORPUSCULAR HEMOGLOBIN,[2],25.03 pg
same,MEAN CORPUSCULAR HEMOGLOBIN CONCENTRATION,[2],39.07 G/DL
same,MEAN CORPUSCULAR VOLUME,[2],64.17 fL
same,MONOCYTE,[2],1%
same,NEUTROPHIL,[2],6%
same,NUCLEATED RED BLOOD CELLS,[2],0 /100WBC
same,PLATELET COUNT,[2],1422 x10E3/uL
same,ALANINE AMINOTRANSFERASE,[2],45.67 u/L
same,ALBUMIN,[2],4.27 G/DL
same,ALKALINE PHOSPHATASE,[2],402 u/L
same,ASPARTATE AMINOTRANSFERASE,[2],80.33 u/L
same,BLOOD UREA NITROGEN,[2],15 mg/dL
same,CARBON DIOXIDE,[2],24.33 mmol/L
same,CHLORIDE,[2],103.67 MEQ/L
same,CHOLESTEROL,[2],58 mg/dL
same,CREATINE PHOSPHOKINASE,[2],234 u/L
same,CREATININE,[2],0.12 mg/dL
same,GLUCOSE,[2],156 mg/dL
same,LACTATE DEHYDROGENASE,[2],145 u/L
same,LIPASE,[2],8.33 u/L
same,PHOSPHORUS,[2],14.27 mg/dL
same,POTASSIUM,[2],7.19 MEQ/L
same,SODIUM,[2],146.97 MEQ/L
same,TOTAL BILIRUBIN,[2],0.17 mg/dL
same,TOTAL PROTEIN,[2],5.73 G/DL
same,URIC ACID,[2],1.77 mg/dL
same,ABSOLUTE BASOPHIL,[3],0 CELLS/uL
same,ABSOLUTE EOSINOPHIL,[3],0 CELLS/uL
same,ABSOLUTE LYMPHOCYTE,[3],15023 CELLS/uL
same,ABSOLUTE MONOCYTE,[3],340 CELLS/uL
same,ABSOLUTE SEGMENTED NEUTROPHIL,[3],1637 CELLS/uL
same,BASOPHIL,[3],0%
same,EOSINOPHIL,[3],0%
same,ERYTHROCYTE COUNT,[3],5.45 x10E6/uL
same,HEMATOCRIT,[3],35.37%
same,HEMOGLOBIN,[3],13.63 G/DL
same,LEUKOCYTE COUNT,[3],17 x10E3/uL
same,LYMPHOCYTE,[3],88%
same,MEAN CORPUSCULAR HEMOGLOBIN,[3],25 pg
same,MEAN CORPUSCULAR HEMOGLOBIN CONCENTRATION,[3],38.57 G/DL
same,MEAN CORPUSCULAR VOLUME,[3],64.9 fL
same,MONOCYTE,[3],2%
same,NEUTROPHIL,[3],10%
same,NUCLEATED RED BLOOD CELLS,[3],0 /100WBC
same,PLATELET COUNT,[3],1322 x10E3/uL
same,ALANINE AMINOTRANSFERASE,[3],49.33 u/L
same,ALBUMIN,[3],4.13 G/DL
same,ALKALINE PHOSPHATASE,[3],331 u/L
same,ASPARTATE AMINOTRANSFERASE,[3],79.33 u/L
same,BLOOD UREA NITROGEN,[3],14 mg/dL
same,CARBON DIOXIDE,[3],19 mmol/L
same,CHLORIDE,[3],102 MEQ/L
same,CHOLESTEROL,[3],69.67 mg/dL
same,CREATINE PHOSPHOKINASE,[3],229 u/L
same,CREATININE,[3],0.18 mg/dL
same,GLUCOSE,[3],149.33 mg/dL
same,LACTATE DEHYDROGENASE,[3],172.67 u/L
same,LIPASE,[3],10 u/L
same,PHOSPHORUS,[3],14.13 mg/dL
same,POTASSIUM,[3],7.15 MEQ/L
same,SODIUM,[3],145.03 MEQ/L
same,TOTAL BILIRUBIN,[3],0.17 mg/dL
same,TOTAL PROTEIN,[3],5.83 G/DL
same,URIC ACID,[3],1.73 mg/dL
same,ABSOLUTE BASOPHIL,[4],0 CELLS/uL
same,ABSOLUTE EOSINOPHIL,[4],0 CELLS/uL
same,ABSOLUTE LYMPHOCYTE,[4],12251.33 CELLS/uL
same,ABSOLUTE MONOCYTE,[4],0 CELLS/uL
same,ABSOLUTE SEGMENTED NEUTROPHIL,[4],1215.33 CELLS/uL
same,BASOPHIL,[4],0%
same,EOSINOPHIL,[4],0%
same,ERYTHROCYTE COUNT,[4],5.48 x10E6/uL
same,HEMATOCRIT,[4],34.33%
same,HEMOGLOBIN,[4],13.57 G/DL
same,LEUKOCYTE COUNT,[4],13.47 x10E3/uL
same,LYMPHOCYTE,[4],91%
same,MEAN CORPUSCULAR HEMOGLOBIN,[4],24.77 pg
same,MEAN CORPUSCULAR HEMOGLOBIN CONCENTRATION,[4],39.6 G/DL
same,MEAN CORPUSCULAR VOLUME,[4],62.6 fL
same,MONOCYTE,[4],0%
same,NEUTROPHIL,[4],9%
same,NUCLEATED RED BLOOD CELLS,[4],0 /100WBC
same,PLATELET COUNT,[4],1274.67 x10E3/uL
same,ALANINE AMINOTRANSFERASE,[4],49.33 u/L
same,ALBUMIN,[4],4.07 G/DL
same,ALKALINE PHOSPHATASE,[4],315.33 u/L
same,ASPARTATE AMINOTRANSFERASE,[4],87.67 u/L
same,BLOOD UREA NITROGEN,[4],16.67 mg/dL
same,CARBON DIOXIDE,[4],25 mmol/L
same,CHLORIDE,[4],103 MEQ/L
same,CHOLESTEROL,[4],71 mg/dL
same,CREATINE PHOSPHOKINASE,[4],262.67 u/L
same,CREATININE,[4],0.16 mg/dL
same,GLUCOSE,[4],147.33 mg/dL
same,LACTATE DEHYDROGENASE,[4],331 u/L
same,LIPASE,[4],8.33 u/L
same,PHOSPHORUS,[4],13.2 mg/dL
same,POTASSIUM,[4],6.8 MEQ/L
same,SODIUM,[4],145.37 MEQ/L
same,TOTAL BILIRUBIN,[4],0.17 mg/dL
same,TOTAL PROTEIN,[4],6 G/DL
same,URIC ACID,[4],1.37 mg/dL
